Results published in patent publication US12497460B2, “Anti-MSR1 antibodies and methods of use thereof” (REGENERON PHARMACEUTICALS, INC., priority 2018, dated 2025).
Converted amounts (≈) assume the structure as drawn. “Also recorded” adds a separate entry of the source.

Experiments:
[1] = Solubility in water of linker-payloads
S. aureus NRS384 = test: Broth minimum inhibitory concentration (MIC) assay; format: cell-based; conditions: S. aureus NRS384, TSB, 24h, 37° C.
Protocol: To test the efficacy of rifamycin analogs of the disclosure in vitro, a broth growth inhibition assay was developed. For the assay, S. aureus NRS384 was grown in Tryptic Soy Broth (TSB) overnight, then sub-cultured 1:50 in fresh TSB and grown for an additional two hours. The culture was then pelleted via centrifugation and washed twice in PBS. The culture was then diluted to 1×10^4 cfu/mL in TSB and 50 μL of the suspension was added per well to a 96 well microtiter dish in duplicate. A dilution series of the indicated antibiotic (an analog according to the disclosure or a previously known analog Rifampicin) was added 1:1 for a final starting concentration of 1×10^−5 M with 1:3 dilutions.

[2] = test system: intracellular S. aureus NRS384 in THP-1 macrophages; test: Intracellular S. aureus killing assay with rifamycin analogs (Example 44); format: cell-based; conditions: for Intracellular killing MIC: lowest concentration that resulted in intracellular S. aureus eradication, THP-1 macrophages; for intracellular S. aureus killing (in words): infected THP-1 macrophages, 2h treatment, compared to rifampicin
Protocol: The rifamycin analog compounds' activity against S. aureus was tested in an intracellular “killing” assay.
THP-1 monocytic cell line was grown in media (RMPI+10% FBS+1% Penicillin/Streptomycin), then seeded at a density of 1e5 cells/well in a 96 well plate and differentiated into macrophages for three days prior to infection using 200 nM PMA. An overnight culture of S. aureus NRS384 was grown in RPMI, washed twice with PBS and resuspended at 1e7 cfu/mL in PBS. THP-1 were washed with warm media (RMPI without FBS) to remove the Penicillin/Streptomycin and then infected with the S. aureus suspension at a multiplicity of infection of 10:1 (S. aureus: macrophages). Plates were spun at 300×g for 5 minutes to synchronize adhesion of the bacteria, then incubated at 37° C. for 2 hours. Free-floating bacteria were removed by washing 2× with warm media and remaining extracellular S. aureus were killed by addition of media containing gentamicin (50 ug/mL). After 1h, media was aspirated and the indicated compound was added to infected macrophages in media containing 50 μg/mL gentamicin to prevent extracellular growth of S. aureus. After 2h, plates were washed 2× with warm RPMI without FBS, and 100 ul of THP-1 lysis buffer (0.1% Triton in PBS) was added to each well. S. aureus survival was enumerated by colony forming units through serial dilution and plating onto TSA.

| SMILES | S. aureus Broth MIC (S. aureus NRS384) [µM] | solubility [1] [µg/mL] | Intracellular killing MIC [2] | intracellular S. aureus killing (in words) [2] |
| --- | --- | --- | --- | --- |
| CCCC1O[C@@H]2C[C@H]3[C@@H]4C[C@H](F)C5=CC(=O)C=C[C@]5(C)[C@@]4(F)[C@@H](O)C[C@]3(C)[C@]2(C(=O)CNC(=O)OCc2ccc(NC(=O)[C@H](CCCNC(N)=O)NC(=O)[C@@H](NC(=O)CCOCCOCCOCCOCCNC(=O)CCC(=O)N3Cc4ccccc4C#Cc4ccccc43)C(C)C)cc2)O1 (stereo partly shown) [LP13] |  | 20 (≈ 14.2 µM) |  |  |
| CCCC1O[C@@H]2C[C@H]3[C@@H]4C[C@H](F)C5=CC(=O)C=C[C@]5(C)[C@@]4(F)[C@@H](O)C[C@]3(C)C2(C(=O)CNC(=O)OCc2ccc(NC(=O)[C@H](CCCNC(N)=O)NC(=O)[C@@H](NC(=O)[C@@H](CCCCNC(=O)COC3CCCCCc4c3nnn4CC3OC4OC5C(CO)OC(OC6C(CO)OC(OC7C(CO)OC(OC8C(CO)OC(OC9C(CO)OC(OC3C(O)C4O)C(O)C9O)C(O)C8O)C(O)C7O)C(O)C6O)C(O)C5O)NC(=O)CCOCCOCCOCCOCCNC(=O)CCC(=O)N3Cc4ccccc4C#Cc4ccccc43)C(C)C)cc2)O1 (stereo partly shown) [LP14] |  | 26 (≈ 9.64 µM) |  |  |

More lines, main results first:

| S. aureus Broth MIC (S. aureus NRS384) [µM] | SMILES | solubility [1] [µg/mL] | Intracellular killing MIC [2] | intracellular S. aureus killing (in words) [2] |
| --- | --- | --- | --- | --- |
| 0.37 | CO[C@H]1/C=C/O[C@@]2(C)Oc3c(C)c(O)c4c(=O)c(c5n(C)c6cc(O)ccc6nc-5c4c3C2=O)NC(=O)/C(C)=C\C=C\[C@H](C)[C@H](O)[C@@H](C)[C@@H](O)[C@@H](C)[C@H](OC(C)=O)[C@@H]1C [R1d, Rifamycin 4-OH-Phenol N-Methyl Analogs] |  | >1.0E−06 |  |
| 0.041 | CO[C@H]1/C=C/O[C@@]2(C)Oc3c(C)c(O)c4c(=O)c(c5oc6cc(OC7CCNCC7)ccc6nc-5c4c3C2=O)NC(=O)/C(C)=C\C=C\[C@H](C)[C@H](O)[C@@H](C)[C@@H](O)[C@@H](C)[C@H](OC(C)=O)[C@@H]1C [R14] |  | 1.0E−06 | increased intracellular S. aureus killing capacity compared to rifampicin |
| 0.0015 | CO[C@H]1/C=C/O[C@@]2(C)Oc3c(C)c(O)c4c(=O)c(c5oc6cc(OCCN(C)C)ccc6nc-5c4c3C2=O)NC(=O)/C(C)=C\C=C\[C@H](C)[C@H](O)[C@@H](C)[C@@H](O)[C@@H](C)[C@H](OC(C)=O)[C@@H]1C [R16a] |  | 4.0E−08 | increased intracellular S. aureus killing capacity compared to rifampicin; also recorded: highest activity |
